Literature values in patent US6682761B2, “Water-insoluble drug particle process” (RTP Pharma, Inc., priority 2000, dated 2004).

Conditions: in vivo

plasma half-life: about 20 hours
Compound: CC(C)(Oc1ccc(C(=O)c2ccc(Cl)cc2)cc1)C(=O)O [Fenofibric acid]
